Test results: patent US20260000496A1, “MATERIALS AND METHODS FOR DRUG-INDUCED GINGIVAL OVERGROWTH” (Optimed Technology, Inc., priority 2019, published 2026)

Experiment: Folic acid release from PLG(A) microspheres in methylcellulose gel
Assay type: physicochemical
Protocol: Folic acid was encapsulated in polylactic-colycolide (PLG) microspheres that were visualized using scanning electron microscopy (SEM) (A). These microspheres were embedded within a methylcellulose gel to enable oral applications and visualized using SEM (B). Controlled release of folic acid of a protracted time course was examined using spectroscopy and cumulative release was calculated (C).
In order to deliver the Folic acid treatment, a controlled release system with polylactic glycolic acid (PLGA) and methylcellulose gel were used (FIG. 36). Release kinetics of folic acid increased over time and noted to continue until day 21. The amount of the released Folic acid was approximate 400 μg/ml on day 1 and reached 800 μg/ml on day 21 due to bulk deterioration of polymer.
Microsphere Fabrication. The folic acid was encapsulated in poly (lactide-co-glycolide) (PLG) (8515DLG7E, Lakeshore Biomaterials, Birmingham, AL, USA) microspheres using double emulsion solvent evaporation method. Briefly, a 100 μL quantity of proteins dissolved in molecular-grade water was pipetted into 1 mL of 5% PLG in ethyl acetate (Sigma-Aldrich Corp., St. Louis, MO, USA) and sonicated (Sonics and Materials Inc., Newtown, CT, USA) on 50% magnitude for 1 min. A second emulsion composed of 1% […] (PVA) (Sigma-Aldrich) and 7% ethyl acetate was then added and vortexed for 15 sec. The solution was then added to a 1% PVA solution with continuous stirring for 3 hrs at room temperature and filtered through a 0.2-μm filter (Nalgene, ThermoFisher Scientific, Rockville, MD, USA), collected by centrifugation at 2,000 rpm for 10 min (Eppendorf, Hamburg, Germany), freeze-dried for 16 hrs (Labconco, Kansas City, MO, USA), and stored at −20° C. The microspheres fabricated with this technique were between 2 and 200 microns.
Gel preparation and folic acid release study. Folic acid (100 μg/ml) (Sigma-Aldrich, St Louis, MO) was encapsulated in PLG microspheres as described above. The resulting lyophilized powder was formulated into an oral gel containing 20 mg of folic acid microspheres mixed with 5% of methylcellulose (Sigma-Aldrich, St Louis, MO) in 330 μl of phosphate buffer saline. The gels were prepared fresh daily before applications and repeated until end of the study period (14 days).

- release of folic acid from polymeric microspheres (FIG. 20): sustained release
- release of folic acid noted to continue until (controlled release system with PLGA and methylcellulose gel): 21 days
- amount of the released Folic acid (controlled release system with PLGA and methylcellulose gel, day 1): ~400 µg/mL
- amount of the released Folic acid (controlled release system with PLGA and methylcellulose gel, day 21): 800 µg/mL
SMILES: Nc1nc2ncc(CNc3ccc(C(=O)N[C@@H](CCC(=O)O)C(=O)O)cc3)nc2c(=O)[nH]1 [folic acid]
